The record followed here is ChEMBL document CHEMBL1909046, “DrugMatrix in vitro pharmacology data”.

Experiment [1] in a line: DRUGMATRIX: Sodium/nucleoside co-transporter radioligand binding (ligand: nitrobenzylthioinosine). Particulars: Not Active = under 50% inhibition at 10 µM. The experiment is classed as cell membranes, Cavia porcellus, Dunkin-Hartley, Cerebral cortex, Membrane.
A short description of experiment [2]: DRUGMATRIX: Serotonin (5-Hydroxytryptamine) 5-HT3 radioligand binding (ligand: [3H] GR-65630). It is filed as cell membranes, Membrane. Particulars: hek293; Not Active = under 50% inhibition at 10 µM.
A further experiment concerns the target Cannabinoid receptor 1 (Homo sapiens, UniProt P21554). The experiment is classed as cell membranes, Chem-1, Membrane. Also: in other assays of this panel Not Active means under 50% inhibition at 10 µM.
In experiment [3] the target is T1, C-X-C chemokine receptor type 1 (Homo sapiens, UniProt P25024). Also: in other assays of this panel Not Active means under 50% inhibition at 10 µM.
T1 sequence (P25024 whole entry): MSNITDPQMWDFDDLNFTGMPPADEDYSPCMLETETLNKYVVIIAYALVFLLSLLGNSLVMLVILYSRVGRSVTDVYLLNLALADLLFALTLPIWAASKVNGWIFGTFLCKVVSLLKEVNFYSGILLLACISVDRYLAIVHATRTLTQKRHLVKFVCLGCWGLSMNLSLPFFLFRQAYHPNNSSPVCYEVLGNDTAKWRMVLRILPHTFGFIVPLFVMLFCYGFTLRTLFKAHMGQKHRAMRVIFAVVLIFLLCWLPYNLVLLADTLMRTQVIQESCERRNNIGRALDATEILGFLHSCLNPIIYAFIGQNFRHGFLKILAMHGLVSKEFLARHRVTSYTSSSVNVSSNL

The target in another experiment is T2, D(4) dopamine receptor (Homo sapiens, UniProt P21917).
T2 sequence (P21917 whole entry): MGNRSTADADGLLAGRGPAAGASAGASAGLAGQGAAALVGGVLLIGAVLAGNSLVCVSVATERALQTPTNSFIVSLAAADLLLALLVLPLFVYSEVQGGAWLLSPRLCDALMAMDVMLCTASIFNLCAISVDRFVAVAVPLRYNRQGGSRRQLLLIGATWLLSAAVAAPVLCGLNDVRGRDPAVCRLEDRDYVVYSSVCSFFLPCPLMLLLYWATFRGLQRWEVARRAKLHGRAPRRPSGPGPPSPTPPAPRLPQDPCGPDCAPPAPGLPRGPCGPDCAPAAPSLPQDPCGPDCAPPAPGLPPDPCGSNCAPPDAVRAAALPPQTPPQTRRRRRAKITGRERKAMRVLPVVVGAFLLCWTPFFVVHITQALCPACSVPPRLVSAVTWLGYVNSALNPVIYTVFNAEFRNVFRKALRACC
The experiment in a line: DRUGMATRIX: Dopamine D4.2 radioligand binding (ligand: [3H] Spiperone). The experiment is classed as cell membranes, Membrane. The settings on record: cho-k1; Not Active = under 50% inhibition at 10 µM.

Experiment [4] in a line: DRUGMATRIX: Interleukin IL-1 radioligand binding (ligand: [125I] interleukin 1beta). It is filed as cell membranes, Membrane. The settings on record: nih3t3; Not Active = under 50% inhibition at 10 µM.
Another experiment addresses T3, Leukotriene C4 synthase (Cavia porcellus, UniProt A6XA80).
T3 sequence (A6XA80 whole entry): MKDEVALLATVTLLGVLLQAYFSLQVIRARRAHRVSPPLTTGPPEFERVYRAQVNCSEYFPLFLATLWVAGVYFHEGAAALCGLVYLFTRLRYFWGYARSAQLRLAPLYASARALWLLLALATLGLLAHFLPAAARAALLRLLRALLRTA
It is filed as tissue-based, Lung.

Another experiment has as its target Mu-type opioid receptor (Homo sapiens, UniProt P35372). The experiment in a line: DRUGMATRIX: Opiate mu (OP3, MOP) radioligand binding (ligand: [3H] Diprenorphine). It is filed as cell membranes, CHO-K1, Membrane. Particulars: cho-k1; Not Active = under 50% inhibition at 10 µM.
Experiment [5] addresses Platelet-activating factor receptor (Homo sapiens, UniProt P25105). The experiment is classed as tissue-based.
A short description of experiment [6]: DRUGMATRIX: Potassium Channel [KATP] radioligand binding (ligand: [3H] Glyburide). It is filed as cell membranes, Membrane. Particulars: hit-t15; Not Active = under 50% inhibition at 10 µM.
Experiment [7] addresses Mitogen-activated protein kinase 3 (Homo sapiens, UniProt P27361). The experiment in a line: DRUGMATRIX: Protein Serine/Threonine Kinase, ERK1 enzyme inhibition (substrate: Myelin Basic Protein). Set-up: species or system Escherichia coli. Particulars: Not Active = under 50% inhibition at 10 µM.
Experiment [8] deals with T4, Receptor-type tyrosine-protein phosphatase C (Homo sapiens, UniProt P08575).
T4 sequence (P08575 whole entry): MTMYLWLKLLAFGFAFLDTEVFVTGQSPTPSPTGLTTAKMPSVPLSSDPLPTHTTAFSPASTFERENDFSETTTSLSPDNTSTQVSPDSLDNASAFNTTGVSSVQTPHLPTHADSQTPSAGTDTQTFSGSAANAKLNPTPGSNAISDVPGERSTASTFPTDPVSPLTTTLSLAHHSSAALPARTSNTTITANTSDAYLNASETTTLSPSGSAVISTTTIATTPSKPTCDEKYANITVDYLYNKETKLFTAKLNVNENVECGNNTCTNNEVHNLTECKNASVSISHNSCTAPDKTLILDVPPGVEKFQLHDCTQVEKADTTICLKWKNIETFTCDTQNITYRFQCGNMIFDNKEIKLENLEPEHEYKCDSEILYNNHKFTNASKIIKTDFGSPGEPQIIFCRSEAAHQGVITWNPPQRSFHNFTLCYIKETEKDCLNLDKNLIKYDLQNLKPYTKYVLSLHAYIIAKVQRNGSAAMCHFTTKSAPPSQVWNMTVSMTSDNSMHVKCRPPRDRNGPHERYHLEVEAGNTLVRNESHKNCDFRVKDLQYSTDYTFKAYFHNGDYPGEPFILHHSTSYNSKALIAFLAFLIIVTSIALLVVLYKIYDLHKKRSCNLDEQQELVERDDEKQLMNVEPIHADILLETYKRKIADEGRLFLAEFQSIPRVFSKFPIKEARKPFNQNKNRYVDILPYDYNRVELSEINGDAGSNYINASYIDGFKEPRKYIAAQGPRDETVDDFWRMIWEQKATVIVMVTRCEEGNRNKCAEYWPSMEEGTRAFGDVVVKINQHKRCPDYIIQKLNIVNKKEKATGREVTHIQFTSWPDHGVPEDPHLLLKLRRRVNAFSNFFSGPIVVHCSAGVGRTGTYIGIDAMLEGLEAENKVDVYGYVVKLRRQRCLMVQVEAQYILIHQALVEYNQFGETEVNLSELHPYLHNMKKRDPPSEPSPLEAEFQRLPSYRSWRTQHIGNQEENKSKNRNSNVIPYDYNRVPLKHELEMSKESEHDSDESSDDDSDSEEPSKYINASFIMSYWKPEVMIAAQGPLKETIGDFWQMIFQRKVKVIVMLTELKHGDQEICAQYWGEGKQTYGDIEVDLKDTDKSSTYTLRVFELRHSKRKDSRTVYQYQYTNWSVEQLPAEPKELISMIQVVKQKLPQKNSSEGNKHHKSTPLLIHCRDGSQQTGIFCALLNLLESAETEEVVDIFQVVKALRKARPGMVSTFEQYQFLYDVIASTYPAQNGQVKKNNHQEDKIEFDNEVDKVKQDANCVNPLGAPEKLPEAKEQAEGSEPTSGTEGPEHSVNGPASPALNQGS
Set-up: species or system Escherichia coli.

Chain of Cannabinoid receptor 1 (P21554 whole entry): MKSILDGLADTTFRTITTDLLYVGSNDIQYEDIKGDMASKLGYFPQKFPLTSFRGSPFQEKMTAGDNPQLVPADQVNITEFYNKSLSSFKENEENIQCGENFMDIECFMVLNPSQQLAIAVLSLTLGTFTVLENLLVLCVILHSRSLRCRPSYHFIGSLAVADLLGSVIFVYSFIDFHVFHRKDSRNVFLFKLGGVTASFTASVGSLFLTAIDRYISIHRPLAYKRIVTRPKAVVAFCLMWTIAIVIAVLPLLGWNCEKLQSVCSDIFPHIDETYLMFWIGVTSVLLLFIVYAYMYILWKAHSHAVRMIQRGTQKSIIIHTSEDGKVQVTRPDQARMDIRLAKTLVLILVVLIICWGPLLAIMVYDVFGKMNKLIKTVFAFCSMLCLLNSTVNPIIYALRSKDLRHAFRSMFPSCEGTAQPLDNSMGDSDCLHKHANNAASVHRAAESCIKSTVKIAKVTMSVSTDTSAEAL
Chain of Mitogen-activated protein kinase 3 (P27361 whole entry): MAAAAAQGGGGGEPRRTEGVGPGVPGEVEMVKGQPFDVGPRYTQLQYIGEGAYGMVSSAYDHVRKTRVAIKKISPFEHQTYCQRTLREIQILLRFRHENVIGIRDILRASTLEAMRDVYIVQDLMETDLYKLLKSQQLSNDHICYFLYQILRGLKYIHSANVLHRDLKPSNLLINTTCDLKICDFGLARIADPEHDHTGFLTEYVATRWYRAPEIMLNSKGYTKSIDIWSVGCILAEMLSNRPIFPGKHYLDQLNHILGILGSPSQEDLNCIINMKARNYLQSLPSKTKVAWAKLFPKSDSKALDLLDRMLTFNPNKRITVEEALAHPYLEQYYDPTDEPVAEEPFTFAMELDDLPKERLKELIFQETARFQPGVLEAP
Chain of Platelet-activating factor receptor (P25105 whole entry): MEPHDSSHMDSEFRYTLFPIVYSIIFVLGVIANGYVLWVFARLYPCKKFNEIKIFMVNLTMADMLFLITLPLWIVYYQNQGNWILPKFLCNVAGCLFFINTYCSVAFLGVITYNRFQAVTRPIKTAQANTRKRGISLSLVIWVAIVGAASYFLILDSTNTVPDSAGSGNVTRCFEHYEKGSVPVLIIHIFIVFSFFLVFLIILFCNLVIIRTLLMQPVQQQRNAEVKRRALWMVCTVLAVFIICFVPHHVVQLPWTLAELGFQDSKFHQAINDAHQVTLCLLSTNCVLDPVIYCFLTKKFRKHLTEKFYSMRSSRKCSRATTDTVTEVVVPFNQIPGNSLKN
Chain of Mu-type opioid receptor (P35372 whole entry): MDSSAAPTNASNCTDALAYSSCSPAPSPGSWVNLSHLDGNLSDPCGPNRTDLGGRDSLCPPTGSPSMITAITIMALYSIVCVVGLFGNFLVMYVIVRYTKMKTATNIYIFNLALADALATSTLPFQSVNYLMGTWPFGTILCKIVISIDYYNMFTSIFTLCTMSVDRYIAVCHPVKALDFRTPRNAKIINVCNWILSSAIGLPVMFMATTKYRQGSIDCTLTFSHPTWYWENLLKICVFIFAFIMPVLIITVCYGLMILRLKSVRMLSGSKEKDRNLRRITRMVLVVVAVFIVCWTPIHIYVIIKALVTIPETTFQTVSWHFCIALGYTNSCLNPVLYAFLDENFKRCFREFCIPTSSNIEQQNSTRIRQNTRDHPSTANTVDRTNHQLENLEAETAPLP

With `CC1=C(CC(=O)O)c2cc(F)ccc2/C1=C\c1ccc([S+](C)[O-])cc1` (stereo not drawn), the half-inhibitory concentration (IC50) entry (in [1]; in experiment [2]; against Cannabinoid receptor 1 (chem-1); in [3]; on D(4) dopamine receptor; in [4]) was “Not Active” in each case. For the same molecule, the IC50 entry (against Leukotriene C4 synthase; on Mu-type opioid receptor; in experiment [5]; in experiment [6]; in experiment [7]; in experiment [8]) was “Not Active” each time. Also, the inhibition constant Ki entry in experiment [1], in [2], in experiment [4] and in experiment [6] was “Not Active” throughout.

As for `N[C@H](CSC(=S)NCc1ccccc1)C(=O)O`, the IC50 entry (in experiment [1]; in experiment [2]; against Cannabinoid receptor 1 (chem-1); in [3]; on D(4) dopamine receptor; in experiment [4]) was “Not Active” each time. Further, the half-inhibitory concentration (IC50) result (against Leukotriene C4 synthase; at Mu-type opioid receptor; in experiment [5]; in experiment [6]; in experiment [7]; in experiment [8]) was “Not Active” each time. Moreover, the Ki result in [1], in experiment [2], in experiment [4] and in experiment [6] was “Not Active” each time.

For `CC(=O)N[C@@H]1[C@H](Oc2c3cc4cc2Oc2ccc(cc2Cl)[C@@H](O[C@@H]2O[C@@H](CO)[C@@H](O)[C@H](O)[C@@H]2NC(C)=O)[C@@H]2NC(=O)[C@H](NC(=O)[C@@H]4NC(=O)[C@H]4NC(=O)[C@@H](Cc5ccc(c(Cl)c5)O3)NC(=O)[C@H](N)c3ccc(O)c(c3)Oc3cc(O)cc4c3)c3ccc(O)c(c3)-c3c(O[C@H]4O[C@H](CO)[C@@H](O)[C@@H](O)[C@@H]4O)cc(O)cc3[C@@H](C(=O)O)NC2=O)O[C@@H](CO)[C@@H](O)[C@@H]1O`, the IC50 result (in experiment [1]; in experiment [2]; against Cannabinoid receptor 1 (chem-1); in experiment [3]; at D(4) dopamine receptor; in experiment [4]) was “Not Active” throughout. Further, the IC50 entry (against Leukotriene C4 synthase; on Mu-type opioid receptor; in experiment [5]; in [6]; in [7]; in [8]) was “Not Active” each time. Moreover, the Ki entry in [1], in experiment [2], in [4] and in experiment [6] was “Not Active” throughout.

On to `COCCOC(=O)C1=C(C)NC(C)=C(C(=O)OC(C)C)C1c1cccc([N+](=O)[O-])c1` (stereo not drawn) [NIMODIPINE], for which the half-maximal inhibitory concentration (IC50) (as a rule, the midpoint of a concentration-inhibition curve) was 1.27 µM in experiment [1] (read-out: IC50); “Not Active” in experiment [2]; 1.74 µM at Cannabinoid receptor 1 (read-out: IC50); “Not Active” in experiment [3]; “Not Active” at D(4) dopamine receptor; “Not Active” in experiment [4]. In addition, the IC50 entry (against Leukotriene C4 synthase; on Mu-type opioid receptor; in experiment [5]; in experiment [6]; in experiment [7]; in experiment [8]) was “Not Active” each time. Also, the Ki – broadly, a measure of affinity in units of concentration, obtained from inhibition or displacement – in [1] (read-out: Ki) was 0.433 µM; in [2], “Not Active”; at Cannabinoid receptor 1 (read-out: Ki) it was 1.37 µM; in experiment [4] it was “Not Active”; in experiment [6], “Not Active”.

Turning to `COCCCOc1ccnc(C[S+]([O-])c2nc3ccccc3[nH]2)c1C` (stereo not drawn) [RABEPRAZOLE], the IC50 entry (in experiment [1]; in experiment [2]; against Cannabinoid receptor 1 (chem-1); in experiment [3]; on D(4) dopamine receptor; in [4]) was “Not Active” in each case. In addition, the IC50 entry (against Leukotriene C4 synthase; on Mu-type opioid receptor; in [5]; in [6]; in experiment [7]; in experiment [8]) was “Not Active” throughout. Also, the Ki result in [1], in experiment [2], in [4] and in [6] was “Not Active” in each case.

With `CNC(=C[N+](=O)[O-])NCCSCc1ccc(CN(C)C)o1` [RANITIDINE], the IC50 entry (in experiment [1]; in experiment [2]; on Cannabinoid receptor 1 (chem-1); in experiment [3]; at D(4) dopamine receptor; in experiment [4]) was “Not Active” each time. Moreover, the IC50 result (against Leukotriene C4 synthase; at Mu-type opioid receptor; in experiment [5]; in experiment [6]; in experiment [7]; in [8]) was “Not Active” in each case. For the same molecule, the inhibitory constant (Ki) entry in experiment [1], in experiment [2], in experiment [4] and in [6] was “Not Active” each time.

Consider `CO[C@H]1/C=C/O[C@@]2(C)Oc3c(C)c(O)c4c(c3C2=O)C2=NC3(CCN(CC(C)C)CC3)NC2=C(NC(=O)/C(C)=C\C=C\[C@H](C)[C@H](O)[C@@H](C)[C@@H](O)[C@@H](C)[C@H](OC(C)=O)[C@@H]1C)C4=O` [RIFABUTIN], for which the IC50 result (in [1]; in experiment [2]; on Cannabinoid receptor 1 (chem-1); in [3]; on D(4) dopamine receptor; in experiment [4]) was “Not Active” throughout. Besides, the IC50 result (against Leukotriene C4 synthase; at Mu-type opioid receptor; in [5]; in experiment [6]; in experiment [7]; in experiment [8]) was “Not Active” throughout. In addition, the Ki entry in [1], in experiment [2], in experiment [4] and in experiment [6] was “Not Active” throughout.
